Measured values taken from patent US20240254087A1, “SELECTIVE, PARTIAL, AND ARRESTIN-BIASED 5-HT2A AGONISTS WITH UTILITY IN VARIOUS DISORDERS” (Saint Joseph's University, priority 2021, published 2024).
“Also recorded” adds a separate entry of the source.

Key:
5-HT2B = 5-HT2B (Homo sapiens, UniProt P41595); test: BRET Gq dissociation, 5-HT2B; assay type: cell-based; design: expressed in transfected cells; host or cells: HEK293T, transient; details: for Emax: read-out: 5-HT2B Gq Dissociation (BRET) EMAX ± SEM (%5-HT)
5-HT2A [1] = target: T1, 5-HT2A (Homo sapiens, UniProt P28223); test: NanoLuc internalization assay; assay type: cell-based; details: 60 min
5-HT2A [2] = target: T1, 5-HT2A; test: [3H]-ketanserin displacement, 5-HT2A membranes; assay type: binding; design: ES-313-M400UA (membranes); host or cells: CHO-K1
male C57BL/6J mice = test: Blockade of agonist-induced HTR by pretreatment; assay type: in vivo, mouse; details: pretreatment of mice with test compound
Procedure: (§1) Vehicle or the NMDA receptor antagonist PCP (5 mg/kg) was injected IP 10 min after SC administration of vehicle or 25N-NB1-Nap (16), and then the mice were placed in the test chambers 10 min later for a 60-min assessment of locomotor activity. (C). […] Mice were treated with vehicle or M100907 (0.03 mg/kg SC) 10 min prior to vehicle or PCP (5 mg/kg IP): animals were placed in the test chambers 10 min after treatment with PCP.
Male C57BL/6J mice (6-8 weeks old) from Jackson Labs (Bar Harbor, ME, USA) were used for the behavioral experiments. The mice were housed on a reversed light-dark cycle (lights on at 1900 h, off at 0700 h) in an AAAC-approved vivarium at the University of California San Diego. Mice were housed up to four per cage in a climate-controlled room and with food and water provided ad libitum except during behavioral testing. Testing was performed between 1000 and 1800 h (during the dark phase of the light-dark cycle). The studies were conducted in accordance with National Institutes Health (NIH) guidelines and were approved by the University of California San Diego Institutional Animal Care and Use Committee.
The mice were allowed to recover from the magnet implantation surgeries for at least 1 week prior to behavioral testing. HTR experiments were conducted in a well-lit room, and the mice were allowed to habituate to the room for at least 1 h prior to testing. Head twitches was assessed in a 12-cm diameter glass cylinder surrounded by a magnetometer coil. Coil voltage was low-pass filtered (2 kHz), amplified, and digitized (20-kHz sampling rate) using a Powerlab/8SP with LabChart v 7.3.2 (ADInstruments, Colorado Springs, CO, USA). […] HTR counts were analyzed using one-way ANOVAs. Dunnett's test was used for post hoc comparisons.

h5-HT2A = target: T2, h5-HT2A (Homo sapiens, UniProt P28223); test: Antagonism of 5-HT induced Ca2+ flux activation; assay type: cell-based; details: FIG. 1D
T2 construct: expressed in transfected cells
Procedure: as §1, with “(A). DOI, a hallucinogen and 5-HT2A agonist, was administered IP 10 min after SC administration of vehicle or test drug. A and then HTR activity was assessed for 30 minutes. *p<0.001, significant difference vs. vehicle (B). Vehicle” for “Vehicle”, “PCP. Animals were tested for 60 min. *p<0.01 vs. vehicle: ^#p<0.01 vs. PCP alone.” for “PCP.”
Calcium flux was measured using stable-expressing 5-HT2 Flp-In 293 T-Rex Tetracycline inducible system described previously (Investigation of the Structure-Activity Relationships of Psilocy bin Analogues, ACS Pharmacol. Transl. Sci. 2020, Publication Date: Dec. 14, 2020, https://doi.org/10.1021/acsptsci.0c00176). […] After dye load, cells were allowed to equilibrate to room temperature for 15 minutes, and then placed in a FLIPR^TETRA fluorescence imaging plate reader (Molecular Devices). Fluorescence for the FLIPR^TETRA were programmed to read baseline fluorescence for 10 s (1 read/s), and afterward 5 μl of drug per well was added and read for a total of 5-10 min (1 read/s). […]

5-HT2A [3] = target: T1, 5-HT2A; test: Antagonism of 5-HT-induced Gq signaling (BRET); assay type: cell-based; design: expressed in transfected cells; host or cells: HEK293T, transient

T1 sequence (P28223 whole entry): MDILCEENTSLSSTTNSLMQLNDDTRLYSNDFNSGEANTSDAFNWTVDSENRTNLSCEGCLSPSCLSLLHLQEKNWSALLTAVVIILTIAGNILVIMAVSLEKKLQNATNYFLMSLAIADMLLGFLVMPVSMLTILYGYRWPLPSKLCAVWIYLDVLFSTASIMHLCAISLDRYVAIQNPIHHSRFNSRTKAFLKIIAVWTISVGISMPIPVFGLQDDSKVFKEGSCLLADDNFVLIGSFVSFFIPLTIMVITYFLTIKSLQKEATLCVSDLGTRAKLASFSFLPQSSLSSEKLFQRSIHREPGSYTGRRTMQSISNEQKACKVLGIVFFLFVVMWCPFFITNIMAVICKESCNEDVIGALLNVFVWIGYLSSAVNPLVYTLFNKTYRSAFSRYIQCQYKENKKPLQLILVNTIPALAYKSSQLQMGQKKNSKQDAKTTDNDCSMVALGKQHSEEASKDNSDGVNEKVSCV
5-HT2B, sequence (P41595 whole entry): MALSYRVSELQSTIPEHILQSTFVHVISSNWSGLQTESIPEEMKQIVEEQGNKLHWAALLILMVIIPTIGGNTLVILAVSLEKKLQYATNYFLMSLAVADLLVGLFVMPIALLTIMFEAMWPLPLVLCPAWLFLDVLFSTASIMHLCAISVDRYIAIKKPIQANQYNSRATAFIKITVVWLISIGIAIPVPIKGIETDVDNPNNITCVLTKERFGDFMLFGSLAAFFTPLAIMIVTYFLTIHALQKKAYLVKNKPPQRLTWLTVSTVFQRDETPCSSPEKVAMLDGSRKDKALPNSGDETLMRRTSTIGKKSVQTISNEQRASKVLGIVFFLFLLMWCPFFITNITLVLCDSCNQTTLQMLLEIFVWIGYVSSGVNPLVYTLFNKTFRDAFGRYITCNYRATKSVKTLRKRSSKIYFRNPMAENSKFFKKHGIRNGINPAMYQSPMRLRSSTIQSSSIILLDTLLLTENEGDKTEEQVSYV
T2 sequence (P28223 whole entry): as the sequence (P28223 whole entry) above

**Q.** What does the source list for `COc1cc([N+](=O)[O-])c(OC)cc1CCNCc1ccccc1` [25N-NB (2), Benzyl[2-(2,5-dimethoxy-4-nitrophenyl)ethyl]amine]?
**A.** EC50 (5-HT2B): 38 nM; Emax (5-HT2B): 32.6 ± 2.3%

**Q.** What does the source list for `COc1cc([N+](=O)[O-])c(OC)cc1CCNCc1ccccc1[N+](=O)[O-]` [25N-NBNO2 (15), [2-(2,5-dimethoxy-4-nitrophenyl)ethyl][(2-nitrophenyl)methyl]amine]?
**A.** 5-HT2B Gq Dissociation (BRET) EMAX ± SEM (%5-HT) (5-HT2B): No activity; 5-HT2B Gq Dissociation (BRET) pEC50 ± SEM (5-HT2B): No activity

**Q.** How did the EC50 (5-HT2B) turn out when `COc1cc([N+](=O)[O-])c(OC)cc1CCN` [2C-N (1), 2-(2,5-dimethoxy-4-nitrophenyl)ethan-1-amine, reference compound] was run?
**A.** 74.1 nM

**Q.** And the Emax (5-HT2B)?
**A.** 87.7 ± 2.8%

**Q.** For `COc1cc([N+](=O)[O-])c(OC)cc1CCNCc1ccccc1OC` [25N-NBOMe (4), [2-(2,5-dimethoxy-4-nitrophenyl)ethyl] [(2-methoxyphenyl)methyl]amine], which EC50 (5-HT2B) is on record?
**A.** 3.89 nM

**Q.** What about the Emax (5-HT2B) of the same compound?
**A.** 61.8 ± 2.3%

**Q.** What about the “Internalization of 5-HT2A receptors” value (5-HT2A [1]) of the same compound?
**A.** strong internalization

**Q.** And the Ki (5-HT2A [2])?
**A.** 1.41 nM

**Q.** For `COc1cc([N+](=O)[O-])c(OC)cc1CCNCc1cccc(C)c1O` [25N-NB-2-OH-3-Me (18), 2-({[2-(2,5-dimethoxy-4-nitrophenyl)ethyl]amino}methyl)-6-methylphenol], which “5-HT2B Gq Dissociation (BRET) EMAX ± SEM (%5-HT)” value (5-HT2B) is on record?
**A.** No activity

**Q.** What about the “5-HT2B Gq Dissociation (BRET) pEC50 ± SEM” value (5-HT2B) of the same compound?
**A.** No activity

**Q.** And the “Blockade of the HTR induced by DOI” value (male C57BL/6J mice)?
**A.** blocked the HTR; also recorded: can block the HTR

**Q.** What does the source list for `COc1cc([N+](=O)[O-])c(OC)cc1CCNCc1ccccc1-c1ccccc1` [25N-NBPh (17), ({[1,1′-biphenyl]-2-yl}methyl)[2-(2,5-dimethoxy-4-nitrophenyl)ethyl]amine]?
**A.** Antagonism of 5-HT induced h5-HT2A Ca2+ flux activation (h5-HT2A): Antagonism; EC50 (5-HT2B): 316 nM; Emax (5-HT2B): 47 ± 5.5%; Antagonism of 5-HT-induced 5-HT2A-mediated Gq signaling (5-HT2A [3]): antagonized; Internalization of 5-HT2A receptors (5-HT2A [1]): potent and strong internalization; Blockade of the HTR induced by DOI (male C57BL/6J mice): blocked the HTR

**Q.** `COc1cc([N+](=O)[O-])c(OC)cc1CCNCc1ccccc1I` [25N-NBI (10)] was tested. Which EC50 (5-HT2B) did it give?
**A.** 29.5 nM

**Q.** What about the Emax (5-HT2B) of the same compound?
**A.** 21.8 ± 2.3%

**Q.** How did the “Antagonism of 5-HT induced h5-HT2A Ca2+ flux activation” value (h5-HT2A) turn out when `COc1cc([N+](=O)[O-])c(OC)cc1CCNCc1cccc2ccccc12` [25N-N-1-Nap (16), [2-(2,5-dimethoxy-4-nitrophenyl)ethyl][(naphthalen-1-yl)methyl]amine] was run?
**A.** Antagonism

**Q.** What about the “5-HT2B Gq Dissociation (BRET) EMAX ± SEM (%5-HT)” value (5-HT2B) of the same compound?
**A.** No activity

**Q.** What about the “5-HT2B Gq Dissociation (BRET) pEC50 ± SEM” value (5-HT2B) of the same compound?
**A.** No activity

**Q.** And the “Antagonism of 5-HT-induced 5-HT2A-mediated Gq signaling” value (5-HT2A [3])?
**A.** antagonized

**Q.** What about the “Internalization of 5-HT2A receptors” value (5-HT2A [1]) of the same compound?
**A.** potent and strong internalization

**Q.** And the Ki (5-HT2A [2])?
**A.** 4.27 nM

**Q.** And the “Blockade of the HTR induced by DOI” value (male C57BL/6J mice)?
**A.** blocked the HTR
